Tests used:
[1] = tested on: normal human dermal fibroblasts; assay: Type I collagen production by normal human dermal fibroblasts (ELISA, per unit protein); format: cell-based; details: for production amount of collagen (relative value, no sample = 100, per unit amount of protein): 1.5×10^−5 M, 48 hours culture, n=6, FIG. 1, t-test vs control; for Type I collagen amount (ng/μg protein) (average ± SD): 48 hours, n=6, control 8.91 ± 0.26, significant (<1%)
Protocol: Skin collagen enhancing activity of menaquinone-7 was compared with those of vitamin K1 and menaquinone-4, using normal human fibroblasts. A menaquinone-7 reagent (Wako Pure Chemical Industries, Ltd.) was used after purity validation by HPLC. The comparison was performed at a setting concentration of 1.5×10^−5 M, which is a maximum solubility of vitamin Ks in a cell culture system. Vitamin K1 (Wako Pure Chemical Industries, Ltd.) and menaquinone-4 (Sigma) were used after purity validation by HPLC.
Normal human dermal fibroblasts (manufactured by Kurabo Industries Ltd.) were inoculated on a 96-well microplate at a cell density of 2.0×10^4 cells per well using a Dulbecco's modified Eagle's medium (DMEM) (Sigma) containing 0.5% by weight of fetal bovine serum (FBS). The medium was replaced, 48 hours after the inoculation, by DMEM containing 0.5% by weight of FBS and menaquinone-7 in a concentration shown in Table 5. A test maximum concentration solution was prepared by dissolving menaquinone-7 in ethanol and diluting it 100 times with a DMEM containing 0.5% FBS. The testing method was confirmed to be valid using magnesium ascorbic acid phosphate (VC-PMg) as a positive control. The medium containing a sample was cultured for 48 hours, and the medium supernatant was collected and subjected to ELISA for measuring the amount of type I collagen. The cells were lysed in a 0.5% Triton X-100 solution, and the protein amount was measured.
A medium and a type I collagen solution for a standard curve were placed on each well of a high-absorption ELISA plate, and coating at 37° C. for 2 hours was performed, followed by blocking with a 1% bovine serum albumin (BSA) solution at 37° C. for 1 hour. Primary antibody reaction was performed using anti-human collagen type I antibody (rabbit) diluted with a 0.3% BSA solution at 37° C. for 1 hour. Secondary antibody reaction was performed using Histofine MAX-PO(R) (rabbit) diluted with a phosphate buffer at 37° C. for 1 hour. A phosphate-citrate buffer (0.1 M, pH 4.0) solution containing 0.3 mg/mL of 2,2′-azinobis(3-ethylbenzothiazoline-6-sulfonic acid)diammounium salt (ABTS) and 0.03% hydrogen peroxide was added thereto, followed by reaction for 20 min The absorbance of the reaction solution was measured at 405 nm with a microplate reader.
The type I collagen amount in the medium was determined from the standard curve prepared by measurement on the same ELISA plate, and the type I collagen amount per unit amount of protein was calculated by dividing the type I collagen amount in the medium by the total protein amount of the cells.
The test was performed at n=6 for each group containing a sample, and the results are each shown as an average +standard deviation. The statistical processing was performed by a Student t-test against the control group not containing the sample, and the symbol * indicates a significance level of less than 1%.
The collagen enhancing activities of menaquinone-7 for human dermal fibroblasts were investigated in the concentration range shown in Table 5. The test of each group containing a sample was performed at n=6, and the results are each shown as an average value. The statistical processing was performed by a Student t-test against the control group not containing the sample, and the symbol * indicates a significance level of less than 1%.

[2] = Vitamin K (MK-7) concentration in rat skin after feeding a menaquinone-7-containing diet; format: in vivo; details: Wistar rats, diet with menaquinone-7 150 μg/g, free feeding 90 days, average ± SD
Protocol: Wistar rats (male, 5-week old) were freely fed with purified feed AIN93G (manufactured by Oriental Yeast) for one week for habituation, and then separated into groups each consisting of three rats so that the total weight of each group was the same. Three rats in each group were freely fed with a rat standard diet (AIN93G) or a menaquinone-7-containing feed (menaquinone-7: 150 μg/g) composed of rat standard diet (AIN93G) and menaquinone-7 for 90 days. Then, vitamin K concentration in the skin was measured. Vitamin K was analyzed by high-performance liquid chromatography with post-column reduction using platinum black and fluorescence detection (Sato, et al., Biochim Biophys. Acta, 1622, 145-150, 2003).

skin collagen = assay: Skin collagen amount in rats fed MK7-containing diets (Sircol Collagen Assay Kit); format: in vivo, Crl:CD(SD)(SPF) rats; details: 90 days; for Type I collagen amount (μg/mg wet skin weight) (average ± SD): MK7-free 38.43 ± 4.56, not significant; for Rate of increase of collagen (%): vs MK7-free diet group
Protocol: Four-week old male Crl:CD(SD)(SPF) rats were habituated after arrival till the start of administration, including one week for quarantine. During the quarantine and habituation, general conditions were observed every day, and the weights were measured on the first day (the day following the arrival), the third day, and the seventh day. The rats were separated into four groups each consisting of five rats so that the total weight of each group was the same.
Rats were freely fed for 90 days with any one of three types of menaquinone-7-containing feeds by adding menaquinone-7 to rat standard diet AIN93G: high MK7 diet (menaquinone-7: 45.4 μg/g diet), moderate MK7 diet (menaquinone-7: 15 μg/g diet), and low MK7 diet (menaquinone-7: 4.54 μg/g diet); or MK7-free diet.
The rats were subjected to fasting on the last day and then dissected. The hair at the abdomen region was carefully shaved with hair clippers, and the skin including the derm was sampled. The skin was cut into about 100 mg pieces and they were exactly weighed. The skin collagen amount was measured with a skin collagen measurement kit (trade name: Sircol Collagen Assay Kit, manufactured by Biocolor). Increased amounts of collagen in three groups fed with the diet containing MK7 were compared with that in the group fed with the MK7-free diet as a control. The statistical processing was performed by a Student t-test. A significance level P<0.05 was determined as to have significant difference. […] In the table, the symbol * means a significant difference.

| SMILES | production amount of collagen (relative value, no sample = 100, per unit amount of protein) [1] | production amount of collagen ([1]; 6.0×10^−5 M) | MK-7 concentration (ng/g) in skin [2] | Type I collagen amount (μg/mg wet skin weight) (average ± SD) (skin collagen; MK7 4.54 μg/g feed) | Rate of increase of collagen (%) (skin collagen; MK7 4.54 μg/g feed) | Type I collagen amount (μg/mg wet skin weight) (average ± SD) (skin collagen; MK7 15.0 μg/g feed) | Rate of increase of collagen (%) (skin collagen; MK7 15.0 μg/g feed) | Rate of increase of collagen (%) (skin collagen; MK7 45.4 μg/g feed) | amount of collagen in skin, dose dependence (skin collagen; oral administration, 4.54 to 45.4 μg/g feed) | Type I collagen amount (ng/μg protein) (average ± SD) ([1]; 0.5 × 10^−6M) | Type I collagen amount (ng/μg protein) (average ± SD) ([1]; 0.5 × 10^−6M, listed as menaquinone-7) | Type I collagen amount (ng/μg protein) (average ± SD) ([1]; 1 × 10^−5M) | Type I collagen amount (ng/μg protein) (average ± SD) ([1]; 1 × 10^−6M) | Type I collagen amount (ng/μg protein) (average ± SD) ([1]; 3 × 10^−6M) | menaquinone-7 amount necessary for promoting collagen production ([1]; conversion of 0.5×10^−6 M) | menaquinone-7 amount necessary for promoting collagen production ([1]; human dermal fibroblasts, lowest concentration tested) |
| --- | --- | --- | --- | --- | --- | --- | --- | --- | --- | --- | --- | --- | --- | --- | --- | --- |
| CC(C)=CCC/C(C)=C/CC/C(C)=C/CC/C(C)=C/CC1=C(C)C(=O)c2ccccc2C1=O [Menaquinone-4, menaquinone-4, reference compound] | only menaquinone-7 significantly increased | did not increase at all | – | – | – | – | – | – | – | – | – | – | – | – | – | – |
| CC1=C(C/C=C(\C)CCC[C@H](C)CCC[C@H](C)CCCC(C)C)C(=O)c2ccccc2C1=O [vitamin K1, reference compound] | only menaquinone-7 significantly increased | – | – | – | – | – | – | – | – | – | – | – | – | – | – | – |
| CC(C)=CCC/C(C)=C/CC/C(C)=C/CC/C(C)=C/CC/C(C)=C/CC/C(C)=C/CC/C(C)=C/CC1=C(C)C(=O)c2ccccc2C1=O [Menaquinone-7, menaquinone-7] | significantly increased | – | 427 ± 243 ng/g | 40.97 ± 6.69 μg/mg wet skin weight | 6.6% | 43.33 ± 2.42 μg/mg wet skin weight | 12.8% | 17.6% | tendency of dose-dependently increasing the amount of collagen | 10.66 ± 0.48 ng/μg protein | significantly promotes production of type I collagen | 11.03 ± 0.23 ng/μg protein | 10.26 ± 0.44 ng/μg protein | 10.41 ± 0.49 ng/μg protein | 325 ng/g | 500 nM |

Reference: patent publication US20150164767A1, “Skin Collagen Enhancing Agent” (J-Oil Mills, Inc., priority 2011, published 2015)
